Laboratory results published in article PMC7811125, “Red-shifted click beetle luciferase mutant expands the multicolor bioluminescent palette for deep tissue imaging” (iScience, 2020).
Where a name gives a salt, the structure may show the parent alone.

Target: T1, Akaluc (Photinus pyralis, UniProt P08659)
T1 construct: Akaluc, multiply mutated firefly luciferase; stably expressed in HEK cells
Assay: live-cell bioluminescence imaging
Type: cell-based
Conditions: HEK cells expressing Akaluc; 0.1 mM substrate; 660 nm filter

T1 sequence (P08659 whole entry): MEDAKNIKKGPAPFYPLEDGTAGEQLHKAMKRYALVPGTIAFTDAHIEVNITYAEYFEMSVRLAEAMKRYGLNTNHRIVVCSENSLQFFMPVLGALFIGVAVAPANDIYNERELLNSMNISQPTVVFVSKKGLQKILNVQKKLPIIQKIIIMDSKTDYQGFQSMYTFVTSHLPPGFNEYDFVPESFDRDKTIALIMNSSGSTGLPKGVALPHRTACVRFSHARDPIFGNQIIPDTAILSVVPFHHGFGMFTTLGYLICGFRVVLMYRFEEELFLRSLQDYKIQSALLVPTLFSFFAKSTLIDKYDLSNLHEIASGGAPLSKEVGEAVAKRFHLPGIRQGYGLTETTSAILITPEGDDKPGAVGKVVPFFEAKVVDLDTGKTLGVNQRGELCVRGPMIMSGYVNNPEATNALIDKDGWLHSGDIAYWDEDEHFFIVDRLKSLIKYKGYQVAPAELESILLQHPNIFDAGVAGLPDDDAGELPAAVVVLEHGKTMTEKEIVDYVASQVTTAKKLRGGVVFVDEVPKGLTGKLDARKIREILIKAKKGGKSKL

## CN(C)c1ccc(/C=C/C=C/C2=N[C@@H](C(=O)O)CS2)cc1 [AkaLumine-HCl]
  live-cell bioluminescence imaging: Akaluc yielded the brightest photon emission with AkaLumine-HCl
